Reference: patent EP1081144A2, “Process for making 5-lipoxygenase inhibitors having varied heterocyclic ring systems” (Pfizer Products Inc., priority 1999, dated 2001)
≈ marks a conversion by molar mass, not a printed value.

Assay: Solubility of the reaction product in acetic acid and in acetic acid/water
Type: physicochemical
Conditions: organic solvent or mixture
Protocol: The reaction mixture was cooled to 22°C and granulated for 1 hour. The resulting slurry was then vacuum filtered and the filter cake was washed twice with water (100 ml). The filter cake (75 g) was placed in a 50°C vacuum drier with a nitrogen bleed, after which 23.04 g of solid product were obtained for a yield of 74.0%.

A solubility (in a 2:1 mixture of acetic acid and water) of roughly 4.5 mg/mL (≈ 13.6 mM) and a solubility (in acetic acid at room temperature) of roughly 62 mg/mL (≈ 187 mM) were found for `NC(=O)C1(c2cccc(Sc3ccc(F)cc3)c2)CCOCC1` [Example 3, tetrahydro-4-[3-(4-fluorophenyl)thio]phenyl-2H-pyran-4-carboxamide] in this work.
